Series [1] has as its target T1, EGF-R Kinase (recombinant enzyme) (Homo sapiens, UniProt P00533).
T1 construct: containing the EGFR cDNA encoding amino acids 645-1186 preceded by Met-Ala-(Ris)6; made in house; host or cells: Sf9 insect cells, recombinant baculovirus vHcEGFR52
Kind of series: Inhibition of Epidermal Growth Factor Receptor Kinase (EGF-R) using recombinant enzyme. It is filed as biochemical. Conditions: RR-SRC peptide substrate. The protocol:
Representative test compounds were evaluated for their ability to inhibit the phosphorylation of the tyrosine residue of a peptide substrate catalyzed by the enzyme epidermal growth factor receptor kinase. […] The enzyme used in this assay is the His-tagged cytoplasmic domain of EGFR. […] A cytoplasmic extract was prepared using 1% Triton X-100 and applied to Ni-NTA column.
Test compounds were made into 10 mg/mL stock solutions in 100% dimethylsulfoxide (DMSO).
The IC50 is the concentration of test compound needed to reduce the total amount of phosphorylated substrate by 50%. The % inhibition of the test compound was determined for at least three different concentrations and the IC50 value was evaluated from the dose response curve.
CPM(control) is in units of counts per minute and was a number expressing the amount of radiolabeled ATP (γ-^33P) incorporated into the RR-SRC peptide substrate by the enzyme after 90 minutes at room temperature in the absence of test compound as measured by liquid scintillation counting. The CPM values were corrected for the background counts produced by ATP in the absence of the enzymatic reaction.

In series [2] the test system is Human epidermoid tumors (A431). The experiment in a line: In vivo inhibition of the growth of human epidermoid tumors (A431). Conditions: for S/T (# of Survivors/# of Treated): Day +21 post tumor staging. How it is done: BALB/c nu/nu female mice (Charles River, Wilmington, Mass.) were used in the in vivo standard pharmacological test procedures. Human epidermoid carcinoma cells A-431 (American Type Culture Collection, Rockville, Md. #CRL-155) were grown in vitro as described above. A unit of 5×10^6 cells were injected subcutaneously into mice. When tumors attained a mass of between 100 and 150 mg, the mice were randomized into treatment groups (day zero). Mice were treated orally (PO) once a day on days 1 through 10 post staging with doses of either 40, 20, 10, 3 or 1 mg/kg/dose of the compound to be evaluated in 0.2% Klucel. Control animals received no drug. Tumor mass was determined every 7 days [(length×width^2)/2] for 28 days post staging. Relative tumor growth (Mean tumor mass on day 7, 14, and 21 divided by the mean tumor mass on day zero) is determined for each treatment group. The % T/C (Tumor/Control) is determined by dividing the relative tumor growth of the treated group by the relative tumor growth of the placebo group and multiplying by 100. A compound is considered to be active if the % T/C is found to be=42%.

T1 sequence (P00533 669-1210): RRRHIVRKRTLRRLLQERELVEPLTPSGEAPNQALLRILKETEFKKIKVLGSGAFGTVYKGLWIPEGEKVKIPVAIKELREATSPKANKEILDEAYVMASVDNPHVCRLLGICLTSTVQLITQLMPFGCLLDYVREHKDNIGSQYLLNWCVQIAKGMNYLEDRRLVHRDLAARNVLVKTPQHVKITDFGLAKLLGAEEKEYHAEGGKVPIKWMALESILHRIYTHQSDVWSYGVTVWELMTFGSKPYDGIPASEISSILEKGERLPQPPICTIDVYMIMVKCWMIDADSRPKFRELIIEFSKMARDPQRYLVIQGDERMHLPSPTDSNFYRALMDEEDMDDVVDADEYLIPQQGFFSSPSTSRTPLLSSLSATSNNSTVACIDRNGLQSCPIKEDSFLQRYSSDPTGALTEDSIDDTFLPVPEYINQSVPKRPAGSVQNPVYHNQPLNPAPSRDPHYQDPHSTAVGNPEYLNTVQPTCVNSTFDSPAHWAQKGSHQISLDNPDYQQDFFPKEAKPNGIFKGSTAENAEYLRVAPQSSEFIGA

The compound `N#Cc1cnc2cc3c(cc2c1Nc1ccc(Cl)cc1Cl)OCCN3` [Example 22, 9-(2,4-Dichloroanilino)-3,4-dihydro-2H-[1,4]oxazino[2,3-g]quinoline-8-carbonitrile] registered a melting point of 254 to 255 °C.

The compound `N#Cc1cnc2cc3c(cc2c1Nc1ccc(F)c(Cl)c1)N(CCCCCl)CCO3` [Example 11, 1-(4-Chlorobutyl)-9-(3-chloro-4-fluoroanilino)-2,3-dihydro-1H-[1,4]oxazino[3,2-g]quinoline-8-carbonitrile] gave a melting point of 78 to 79 °C.

For `CN(C)CCCC(=O)N1CCOc2cc3ncc(C#N)c(Nc4ccc(F)c(Cl)c4)c3cc21` [Example 10, 9-(3-Chloro-4-fluoroanilino)-1-[4-(dimethylamino)butanoyl]-2,3-dihydro-1H-[1,4]oxazino[3,2-g]quinoline-8-carbonitrile], the melting point was 165 °C. The IC50 in series [1] amounted to 200 nM.

`CN(C)CCCCN1CCOc2cc3ncc(C#N)c(Nc4ccc(F)c(Cl)c4)c3cc21` [Example 12, 9-(3-Chloro-4-fluoroanilino)-1-[4-(dimethylamino)butyl]-2,3-dihydro-1H-[1,4]oxazino[3,2-g]quinoline-8-carbonitrile] showed a melting point of 105 °C. Also, in series [1], the IC50 turned out to be 5 nM.

With `CN(C)C/C=C/C(=O)N1CCOc2cc3ncc(C#N)c(Nc4ccc(F)c(Cl)c4)c3cc21` [Example 9, 9-(3-Chloro-4-fluoroanilino)-1-[(2E)-4-(dimethylamino)-2-butenoyl]-2,3-dihydro-1H-[1,4]oxazino[3,2-g]quinoline-8-carbonitrile], the “S/T (# of Survivors/# of Treated)” value in series [2] (1 mg/kg/dose PO, days 1 through 10) is given as 5/5; in series [2] (3 mg/kg/dose PO, days 1 through 10) it was 5/5; in series [2] (10 mg/kg/dose PO, days 1 through 10) it was 5/5; in series [2] (20 mg/kg/dose PO, days 1 through 10), 5/5; in series [2] (40 mg/kg/dose PO, days 1 through 10), 5/5. Also, the “RTG (relative tumor growth) Day 21” value in series [2] (10 mg/kg/dose PO, days 1 through 10, Day 21) amounted to 11.09. Besides, the “inhibition of tumor growth in vivo (in words)” value in series [2] (A431 tumors in mice, PO) is given as “effective inhibitor of tumor growth in vivo”.

With `CCN1CCN(CCCCN2CCOc3cc4c(Nc5ccc(Cl)cc5Cl)c(C#N)cnc4cc32)CC1` [Example 24, 9-(2,4-Dichloroanilino)-4-[4-(4-ethyl-1-piperazinyl)butyl]-3,4-dihydio-2H-[1,4]oxazino[2,3-g]quinoline-8-carbonitrile], the melting point was 97 to 98 °C.

Compound `N#Cc1cnc2cc3c(cc2c1Nc1ccc(F)c(Cl)c1)NCCO3` [Example 7, 9-(3-Chloro-4-fluoroanilino)-2,3-dihydro-1H-[1,4]oxazino[3,2-g]quinoline-8-carbonitrile] showed a melting point of 244 to 245 °C.

As usually defined, the melting point is the temperature of the solid-liquid transition. What is called IC50 is the point on the concentration scale where inhibition reaches its midpoint.

The record behind these values is US6608048B2, “Tricyclic protein kinase inhibitors” (Wyeth Holdings, priority 2000, dated 2003).
